Experiments:
[1] = system: LNCap human prostate cancer cell lines; experiment: MTT survival rate of LNCap cells stimulated by testosterone; format: cell-based
Procedure: In one embodiment, LNCap human prostate cancer cell lines (BCRC 60088) purchased from Bioresource Collection and Research Center (BCRC) are used. 2×10^4 LNCap cells/well are placed in the 96-well plate and cultured for 24 hr. LNCap cells treated with testosterone and various concentrations (0.5 mg/mL and 2.0 mg/mL) of the banana flower extract, and co-cultured for 3 days. LNCap cells are treated with the banana flower extract without testosterone as negative control, and LNCap cells are treated with testosterone without the banana flower extract as vehicle control. The survival rate of LNCap cells is evaluated using the MTT assay, LNCap cells are treated with 1 mg/mL MTT (3-[4,5-dimethyl thiazol-2-yl]-2,5diphenyl tetrazolium bromide) for 2 hr, and dimethyl sulfoxide (DMSO) is added to dissolve blue formazan crystals. An absorbance is measured using a reader at the wavelength of 570 nm.

[2] = system: dihydrotestosterone synthesis in LNCap cells; experiment: Dihydrotestosterone level (ELISA) in LNCap cells stimulated by testosterone; format: cell-based, human; conditions: co-treatment of testosterone and 0.2 mg/mL finasteride; testosterone alone = 100%
Procedure: 1×10^5 LNCap cells/well are cultured with RPMI 1640 containing 10% FBS and 1% sodium pyruvate in 9-cm culture plate for 36 hr. […] And all LNCap cells are stimulated by 10 μg/mL testosterone.
Cell lysis is processed prior to analysis of dihydrotestosterone level: LNCap cells are dispersed with typsin and centrifuged to collect the suspension cells, the suspension cells are washed with cold PBS, and the suspension cells are resuspended in PBS(1×) and sonicated 4 times; or LNCap cells are frozen at −20° C. or lower, and stirred frequently until thawed for 3 times to destroy cells. The destroyed cells are centrifuged at 150× g at 2-8° C. for 10 min to remove the cell debris. Finally, dihydrotestosterone ELISA Kit (Uscn Life science Inc.) is used to detect dihydrotestosterone level.
LNCap cells are treated with the banana flower extract of the present invention and testosterone as above-mentioned method, LNCap cells treated with the banana flower extract without testosterone as negative control, and LNCap cells treated with testosterone without the banana flower extract as vehicle control, are detected dihydrotestosterone level. […] As co-treating with testosterone and the banana flower extract (2 mg/mL), the dihydrotestosterone synthesis rate of LNcap cells is decreased about 30%. […]

SMILES	survival rate of LNcap cells ([1]; testosterone alone, without testosterone = 100%)	LNcap cell proliferation stimulated by testosterone ([1]; co-treatment of testosterone and 0.2 mg/mL finasteride)	reduction of dihydrotestosterone synthesis rate [2] [%]
C[C@]12CC[C@H]3[C@@H](CCC4=CC(=O)CC[C@@]43C)[C@@H]1CC[C@@H]2O [testosterone]	about 110%		
CC(C)(C)NC(=O)[C@H]1CC[C@H]2[C@@H]3CC[C@H]4NC(=O)C=C[C@]4(C)[C@H]3CC[C@]12C [finasteride]		slightly inhibit	10
